Consider 17 compounds from patent US20120122906A1, “NOVEL SULFONAMIDE DERIVATIVE AND PHARMACEUTICAL PRODUCT CONTAINING SAME” (KOWA COMPANY, LTD., priority 2009, published 2012).

One assay has as its target T1, angiotensin II type 1 receptor (Oryctolagus cuniculus, UniProt P34976).
T1 construct: By using a specimen of isolated rabbit blood vessels; from tissue; host or cells: rabbit thoracic aorta ring (New Zealand White, male)
T1 sequence (P34976 1-359): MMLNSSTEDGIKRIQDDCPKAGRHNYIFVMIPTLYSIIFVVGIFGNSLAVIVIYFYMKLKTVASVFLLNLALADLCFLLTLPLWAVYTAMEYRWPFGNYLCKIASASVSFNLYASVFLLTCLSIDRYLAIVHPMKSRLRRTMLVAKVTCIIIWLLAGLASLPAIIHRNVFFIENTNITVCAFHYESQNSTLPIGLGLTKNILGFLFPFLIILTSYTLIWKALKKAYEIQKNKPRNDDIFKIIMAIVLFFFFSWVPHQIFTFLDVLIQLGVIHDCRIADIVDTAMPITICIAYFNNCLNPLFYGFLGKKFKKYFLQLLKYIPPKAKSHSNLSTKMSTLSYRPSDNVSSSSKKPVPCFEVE
Description: Angiotensin II antagonistic activity in isolated rabbit blood vessels (angiotensin II-induced contraction of thoracic aorta ring). To be noted: 0.1 μM compound, angiotensin II (10 nM)-induced contraction, read-out: Angiotensin II activity inhibition rate (%) at 0.1 μM concentration. The procedure: By using a specimen of isolated rabbit blood vessels, antagonistic activity of the compounds of the invention against angiotensin II type 1 receptor was estimated from a dose-response curve of angiotensin II-induced blood vessel contraction. Specifically, the specimen of thoracic aorta ring of a rabbit (New Zealand White: male, 2.4 to 3.0 kg) was suspended in a magnus bath filled with Krebs-Henseleite buffer (composition: 118 mM NaCl, 4.7 mM KCl, 2.55 mM CaCl2, 1.18 mM MgSO4, 1.18 mM KH2PO4, 24.88 mM NaHCO3, and 11.1 mM D-glucose), and angiotensin II (10 nM)-induced contraction was obtained in the presence of the compounds of each example (1 nmol to 10 μmol/L). During the measurement, the inside temperature of the magnus bath was maintained at 37° C. and the bath was continuously ventilated with a sufficient amount of mixed gas (95% O2 and 5% CO2). The angiotensin II-induced contraction was converted into a relative value (%) that is based on the angiotensin II (10 nM)-induced contraction in the absence of the compounds of each example. From the concentration-response curve obtained therefrom, 50% inhibition concentration (IC50 value) was calculated by using SAS Preclinical Package Ver 5.0 (trade name, manufactured by SAS institute Japan Co., Tokyo, Japan), which is a statistical analysis program.
Turning to `CCCCc1nc(C)n(-c2ncc(OC)cn2)c(=O)c1Cc1ccc(-c2ccccc2S(=O)(=O)NC(=O)C2CCCC2)cc1` [Example 4, N-{4′-{[4-butyl-1-(5-methoxypyrimidin-2-yl)-2-methyl-6-oxo-1,6-dihydropyrimidin-5-yl]methyl}biphenyl-2-ylsulfonyl}cyclopentanecarboxamide], the inhibition at 0.1 µM was determined as 100%. The same measure, in the same setting: with `CCCCc1nc(C)n(-c2ncc(OCC)cn2)c(=O)c1Cc1ccc(-c2ccccc2S(=O)(=O)NC(=O)C2CCCC2)cc1` [Example 9, N-{4′-{[4-butyl-1-(5-ethoxypyrimidin-2-yl)-2-methyl-6-oxo-1,6-dihydropyrimidin-5-yl]methyl}biphenyl-2-ylsulfonyl}cyclopentanecarboxamide] the figure was 100%; with `CCCCCC(=O)NS(=O)(=O)c1ccccc1-c1ccc(Cc2c(CCCC)nc(C)n(-c3ncc(OC)cn3)c2=O)cc1` [Example 2, N-{4′-{[4-butyl-1-(5-methoxypyrimidin-2-yl)-2-methyl-6-oxo-1,6-dihydropyrimidin-5-yl]methyl}biphenyl-2-ylsulfonyl}hexanamide], 91.9%; with `CCCCc1nc(C)n(-c2ncc(OCC)cn2)c(=O)c1Cc1ccc(-c2ccccc2S(=O)(=O)NC(=O)C2CCCCC2)cc1` [Example 10, N-{4′-{[4-butyl-1-(5-ethoxypyrimidin-2-yl)-2-methyl-6-oxo-1,6-dihydropyrimidin-5-yl]methyl}biphenyl-2-ylsulfonyl}cyclohexanecarboxamide], 81.9%. Still for that read-out and setting: to `CCCCCC(=O)NS(=O)(=O)c1ccccc1-c1ccc(Cc2c(CCCC)nc(C)n(-c3ncc(OCC)cn3)c2=O)cc1` [Example 7, N-{4′-{[4-butyl-1-(5-ethoxypyrimidin-2-yl)-2-methyl-6-oxo-1,6-dihydropyrimidin-5-yl]methyl}biphenyl-2-ylsulfonyl}hexanamide] belongs 89.3%; to `CCCCc1nc(C)n(-c2ncc(OC)cn2)c(=O)c1Cc1ccc(-c2ccccc2S(=O)(=O)NC(=O)C2CC2)cc1` [Example 3, N-{4′-{[4-butyl-1-(5-methoxypyrimidin-2-yl)-2-methyl-6-oxo-1,6-dihydropyrimidin-5-yl]methyl}biphenyl-2-ylsulfonyl}cyclopropanecarboxamide], 90%; to `CCCCc1nc(C)n(-c2ncc(OC)cn2)c(=O)c1Cc1ccc(-c2ccccc2S(=O)(=O)NC(=O)C2CCCCC2)cc1` [Example 5, N-{4′-{[4-butyl-1-(5-methoxypyrimidin-2-yl)-2-methyl-6-oxo-1,6-dihydropyrimidin-5-yl]methyl}biphenyl-2-ylsulfonyl}cyclohexanecarboxamide], 92.4%. On the same count and under the same terms, to `CCCCc1nc(C)n(-c2ncc(OC)cn2)c(=O)c1Cc1ccc(-c2ccccc2S(=O)(=O)NC(=O)CC)cc1` [Example 1, N-{4′-{[4-butyl-1-(5-methoxypyrimidin-2-yl)-2-methyl-6-oxo-1,6-dihydropyrimidin-5-yl]methyl}biphenyl-2-ylsulfonyl}propionamide] belongs 71.7%.

Another assay deals with T2, human PPARγ2 (Homo sapiens, UniProt P37231).
T2 construct: the amino acids 182 to 505 of human PPARγ2; expressed in transfected cells
T2 sequence (P37231 182-505): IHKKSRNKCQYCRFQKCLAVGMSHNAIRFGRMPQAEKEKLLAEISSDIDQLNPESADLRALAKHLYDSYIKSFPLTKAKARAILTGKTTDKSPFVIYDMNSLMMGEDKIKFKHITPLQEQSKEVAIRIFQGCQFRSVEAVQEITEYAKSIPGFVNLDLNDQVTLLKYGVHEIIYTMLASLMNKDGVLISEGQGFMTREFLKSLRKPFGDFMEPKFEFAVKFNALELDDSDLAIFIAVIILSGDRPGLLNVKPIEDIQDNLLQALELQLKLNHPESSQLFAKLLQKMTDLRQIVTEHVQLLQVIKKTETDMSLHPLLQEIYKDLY
As to the kind of experiment: PPARγ activation activity, Gal4-PPARγ2 LBD luciferase transfection assay in COST cells. In kind it is cell-based. To be noted: Gal4-human PPARγ2 LBD luciferase reporter, 16 hours, rosiglitazone = 100%. The protocol: The agonistic activity of the compounds of the invention on PPARγ was measured based on the transfection assay using COST cells (DS Pharma Biomedical Co., Ltd., Osaka, Japan), which are the cell line derived from the kidney of the African green monkey. COST cells were cultured under 5% CO2 concentration, and DMEM medium containing 10% fetal bovine serum, glutamic acid, and antibiotics was used as a medium.
As an expression vector, a chimera in which DNA binding domain of Gal4, which is a yeast transcription factor, and ligand binding domain of human PPARγ2 are fused, i.e., a fused product between the amino acids 1 to 147 of Gal4 transcription factor and the amino acids 182 to 505 of human PPARγ2, was used. Furthermore, as a reporter vector, a firefly luciferase containing five copies of Gal4 recognition sequence in the promoter region was used. Plasmid transfection to the cells was performed according to a method which uses jetPEI (trade name, manufactured by Funakoshi Co., Ltd., Tokyo, Japan). Furthermore, β-galactosidase expression vector was employed as an internal standard.
After the transfection of the cells, the medium was replaced with a DMEM medium (containing 1% serum) added with the compound, and the cells were further cultured for 16 hours. After that, the luciferase activity and β-galactosidase activity in the cell lysis solution were measured.
For the present test, dimethyl sulfoxide (DMSO) was used for dissolution and dilution of the test compounds, and during the cell treatment, the DMSO concentration in DMEM medium (containing 1% serum) was adjusted to 0.1%. As a positive compound, rosiglitazone (trade name, manufactured by ALEXIS Corporation, Switzerland) was used. The luciferase activity (%) of the test compounds (1 to 30 μmol/L) was calculated when the luciferase activity of rosiglitazone (3 to 10 μmol/L) is 100% and the luciferase activity in the absence of the test compound is 0%. The 50% effective concentration of the test compound (EC50, 50% effect concentration) was calculated by using SAS Preclinical Package Ver 5.0 (trade name, manufactured by SAS institute Japan Co., Tokyo, Japan), which is a statistical analysis program.
Under the same condition, the PPARγ activation activity of telmisartan, i.e., EC50, was 1 to 5 μM. In addition, it was confirmed that compounds of Examples not shown in Table 2 also have PPARγ activation activity at a concentration of 30 μM.
As for `CCCCc1nc(C2CCC2)n(-c2ncc(OCC)cn2)c(=O)c1Cc1ccc(-c2ccccc2S(=O)(=O)NC(=O)C2CC2)cc1` [Example 17, N-{4′-{[4-butyl-2-cyclobutyl-1-(5-ethoxypyrimidin-2-yl)-6-oxo-1,6-dihydropyrimidin-5-yl]methyl}biphenyl-2-ylsulfonyl}cyclopropanecarboxamide], a half-maximal response (EC50) required 0.96 µM. In turn, `CCCCc1nc(C)n(-c2ncc(OCC)cn2)c(=O)c1Cc1ccc(-c2ccccc2S(=O)(=O)NC(=O)C2CCCC2)cc1` [Example 9, N-{4′-{[4-butyl-1-(5-ethoxypyrimidin-2-yl)-2-methyl-6-oxo-1,6-dihydropyrimidin-5-yl]methyl}biphenyl-2-ylsulfonyl}cyclopentanecarboxamide] had a concentration giving a half-maximal response (EC50) of 3.52 µM. As for `CCCCc1nc(CC)n(-c2ncc(OCC)cn2)c(=O)c1Cc1ccc(-c2ccccc2S(=O)(=O)NC(=O)C2CC2)cc1` [Example 13, N-{4′-{[4-butyl-1-(5-ethoxypyrimidin-2-yl)-2-ethyl-6-oxo-1,6-dihydropyrimidin-5-yl]methyl}biphenyl-2-ylsulfonyl}cyclopropanecarboxamide], a half-maximal response (EC50) required 2.79 µM.

`CCCCCC(=O)NS(=O)(=O)c1ccccc1-c1ccc(Cc2c(CCCC)nc(C)n(-c3ncc(OCC)cn3)c2=O)cc1` [Example 7, N-{4′-{[4-butyl-1-(5-ethoxypyrimidin-2-yl)-2-methyl-6-oxo-1,6-dihydropyrimidin-5-yl]methyl}biphenyl-2-ylsulfonyl}hexanamide] returned an EC50 of 2.21 µM. Same read-out and setting: to `CCCCc1nc(C2CC2)n(-c2ncc(OC)cn2)c(=O)c1Cc1ccc(-c2ccccc2S(=O)(=O)NC(=O)C2CC2)cc1` [Example 15, N-{4′-{[4-butyl-2-cyclopropyl-1-(5-methoxypyrimidin-2-yl)-6-oxo-1,6-dihydropyrimidin-5-yl)methyl)biphenyl-2-ylsulfonyl]cyclopropanecarboxamide] belongs 1.05 µM; to `CCCCc1nc(C(C)C)n(-c2ncc(OCC)cn2)c(=O)c1Cc1ccc(-c2ccccc2S(=O)(=O)NC(=O)C2CC2)cc1` [Example 14, N-{4′-{[4-butyl-1-(5-ethoxypyrimidin-2-yl)-2-isopropyl-6-oxo-1,6-dihydropyrimidin-5-yl)methyl)biphenyl-2-ylsulfonyl]cyclopropanecarboxamide], 1.36 µM; to `CCCc1nc2c(C)cc(-c3nc4ccccc4n3C)cc2n1Cc1ccc(-c2ccccc2C(=O)O)cc1` [telmisartan, reference compound], 1 to 5 µM. The compound `CCCCc1nc(C)n(-c2ncc(OC(F)F)cn2)c(=O)c1Cc1ccc(-c2ccccc2S(=O)(=O)NC(=O)C2CC2)cc1` [Example 11, N-{4′-{{4-butyl-1-[5-(difluoromethoxy)pyrimidin-2-yl]-2-methyl-6-oxo-1,6-dihydropyrimidin-5-yl}methyl}biphenyl-2-ylsulfonyl}cyclopropanecarboxamide] came in with an EC50 of 3.37 µM. Still for that read-out and setting: to `CCCCc1nc(C2CCCC2)n(-c2ncc(OCC)cn2)c(=O)c1Cc1ccc(-c2ccccc2S(=O)(=O)NC(=O)C2CC2)cc1` [Example 18, N-{4′-{[4-butyl-2-cyclopentyl-1-(5-ethoxypyrimidin-2-yl)-6-oxo-1,6-dihydropyrimidin-5-yl]methyl}biphenyl-2-ylsulfonyl}cyclopropanecarboxamide] belongs 0.71 µM; to `CCCCc1nc(C2CC2)n(-c2ncc(OCC)cn2)c(=O)c1Cc1ccc(-c2ccccc2S(=O)(=O)NC(=O)C2CC2)cc1` [Example 16, N-{4′-{[4-butyl-2-cyclopropyl-1-(5-ethoxypyrimidin-2-yl)-6-oxo-1,6-dihydropyrimidin-5-yl]methyl}biphenyl-2-ylsulfonyl}cyclopropanecarboxamide], 2.35 µM; to `CCCCc1nc(C2CCCCC2)n(-c2ncc(OCC)cn2)c(=O)c1Cc1ccc(-c2ccccc2S(=O)(=O)NC(=O)C2CC2)cc1` [Example 19, N-{4′-{[4-butyl-2-cyclohexyl-1-(5-ethoxypyrimidin-2-yl)-6-oxo-1,6-dihydropyrimidin-5-yl]methyl}biphenyl-2-ylsulfonyl}cyclopropanecarboxamide], 0.51 µM.
